Laboratory results published in patent US20130096116A1, “TREATMENT OF PHARMACOLOGICAL-INDUCED HYPOCHLORHYDRIA” (Genentech, Inc., priority 2011, published 2013).
Converted amounts (≈) assume the structure as drawn. Counter-ions that a name gives are not always drawn. Like-named read-outs stand apart in the source and are kept apart here. Blank lines part the entries; values can stand above or below the compound they belong to.

Experiments:
[1] = Oral exposure of dasatinib and gastric pH in dogs with famotidine, pentagastrin or betaine HCl pretreatment; format: in vivo, beagle dogs
Procedure: Dogs were treated with dasatinib 50 mg tablet (Example 5). Dogs in each group received the following pretreatment: Group 1: no pretreatment (control); Group 2: famotidine 40 mg tablet orally, 3 hours prior to dasatinib; Group 3: pentagastrin by intramuscular injection (6 mg/kg) 30 min before dasatinib administration; Groups 4 and 5: Two betaine HCl 750 mg tablets were administered to the two groups as follows: one betaine HCl tablet orally 5 min before dasatinib and the other 20 min before dasatinib Group 5 was also treated with famotidine 40 mg tablet orally, 3 hours prior to dasatinib. […] Betaine HCl performs as well as pentagastrin, and improves dasatinib/famotidine exposure (AUC, FIG. 5C).
Dasatinib pharmacokinetics was evaluated in dogs with famotidine-induced hypochlorhydria (FIG. 5A). Dasatinib was administered as a 50 mg SPRYCEL® (Bristol-Myers Squibb) tablet. Famotidine 40 mg tablets were administered 3 hrs before dasatinib. Pentagastrin injection was administered intramuscularly 30 min prior before dasatinib administration. Two betaine HCl 750 mg tablets administered at the following times: 1 orally 20 min and 5 min prior to dasatinib administration.
Five groups of naïve, male beagle dogs (n=4 per group) each received a different pretreatment prior to dasatinib treatment.
(§1) Group 1: no pretreatment (control)
Group 2: famotidine 40 mg tablet orally, 3 hours prior to dasatinib
Group 3: pentagastrin by intramuscular injection (6 mg/kg) 30 min before dasatinib administration
Groups 4 and 5: Two betaine HCl 750 mg tablets were administered to the two groups as follows: one betaine HCl tablet orally 5 min before dasatinib and the other 20 min before dasatinib
Group 5: famotidine 40 mg tablet orally, 3 hours prior to dasatinib.

[2] = pH solubility profile of GDC-0941 (shake flask method); format: physicochemical; details: 50 mM USP buffer, aqueous buffer, thermodynamic from solid, 48 hours at 37° C.
Procedure: The solubility test was conducted using the shake flask method. […] Each sample was prepared at a volume of approximately 2 mL, with excess solid in each sample. […] Samples were then filtered and concentrations were determined by HPLC under reversed-phase conditions using a C18 column, and elution with a phosphate buffer (pH 6.5), acetonitrile gradient. The injection volume was 5 μL, with a flow rate of 1.2 mL/min and detection at 230 nm.

[3] = Oral exposure of GDC-0941 in dogs with famotidine, pentagastrin or betaine HCl pretreatment; format: in vivo; details: male, beagle, dog, plasma, 40 mg, 40 mg oral
Procedure: Group 2 dogs were pretreated with famotidine 40 mg tablet to induce hypochlorhydria and as a negative control. Group 3 dogs were pretreated with pentagastrin by intramuscular injection 6 mg/kg. Pentagastrin is a synthetic peptide which stimulates the secretion of […], pepsin, and intrinsic factor, and lowers the pH of the gut through physiologic stimulation of acid secretion. […] Group 5 dogs were pretreated with famotidine, then treated with betaine HCl, 2×750 mg tablets.
as §1

[4] = Effect of rabeprazole on pharmacokinetics of GDC-0941 in patients with advanced solid tumors; format: in vivo; details: cancer patients pretreated with rabeprazole 20 mg Days 4-8, Day 8 vs Day 1
[5] = media with enough betaine HCl to lower the pH to 2.4 or below
gastric pH = assay: Gastric pH (Heidelberg capsule) after betaine HCl in healthy volunteers with rabeprazole-induced hypochlorhydria; format: in vivo
Procedure: The pH of the stomach was measured over time with a Heidelberg capsule with tether swallowed at t=0. […] Onset of effect of betaine HCl was rapid, with a mean time to pH<3 of 6.3 (±4.3) min, and its duration was adequate but temporary, with a gastric pH<3 and <4 lasting 72.5 (±32.9) and 76.8 (±30.4) min, respectively.
Dasatinib pharmacokinetics was evaluated in healthy volunteer subjects with rabeprazole-induced hypochlorhydria by dosing 20 mg oral rabeprazole twice daily for 4 days. On the morning (a.m.) of study day 5, subjects received an additional 20 mg oral rabeprazole, and the Heidelberg Capsule pH diagnostic system (HC) was used for continuous gastric pH monitoring. When gastric pH remained >4 for at least 15 min, a 1500 mg dose of betaine HCl was given orally, and gastric pH was monitored for 2 h. During part 2 of this study a 3-period crossover study, five of ten subjects each received: (A) 100 mg dasatinib (Control); (B) 100 mg dasatinib after rabeprazole pre-treatment; (C) 100 mg dasatinib, 1500 mg betaine HCl, after rabeprazole pre-treatment. For treatments B+C, 20 mg rabeprazole twice daily was given for 3 days prior to and on the a.m. of each study day. Gastric pH was monitored and DAS plasma concentrations were measured over 22 h (see study schematic below) with dasatinib concentration versus time results shown in FIG. 8A and exposure (AUC) in FIG. 8B.

[6] = cited from earlier work
[7] = cited from earlier work; remark: listed apart in the source
[8] = cited from earlier work; remark: listed apart in the source
[9] = 100 mg dasatinib after 40 mg omeprazole daily for 4 days; cited from earlier work
[10] = cited from earlier work; remark: listed apart in the source
[11] = single 50-mg dose 10 hours following 40 mg of famotidine

Compound: NC(N)=Nc1nc(CSCCC(N)=NS(N)(=O)=O)cs1 [famotidine]
- effect on gastric pH ([1]; dogs pretreated with famotidine 40 mg): significant hypochlorhydria (increased gastric pH)

- solubility at 48 h ([2]; all tested pH values above pH 4.4, read-out: measured solubility): ~1 µg/mL (≈ 1.95 µM)
- solubility at 48 h ([2]; pH 1.0, read-out: solubility): ~800 µg/mL (≈ 1560 µM)
- solubility at 48 h ([2]; pH 3.0, read-out: solubility): ~8 µg/mL (≈ 15.6 µM)
- solubility at 48 h ([2]; pH 7.5, read-out: solubility): < 1 µg/mL
- AUC ([3]; Group 4 (betaine HCl only pretreatment)): 7.38 µM·h
- AUC ([3]; Group 5 (famotidine+betaine HCl), excluding animal D501 (n=3)): 7.12 µM·h
- decrease of GDC-0941 (AUC, FIG. 7) [4]: 40%
- drug rapidly dissolved and maintained in solution [5]: greater than 90%
Compound: CS(=O)(=O)N1CCN(Cc2cc3nc(-c4cccc5[nH]ncc45)nc(N4CCOCC4)c3s2)CC1 [GDC-0941, 4-(2-(1H-indazol-4-yl)-6-((4-(methylsulfonyl)piperazin-1-yl)methyl)thieno[3,2-d]pyrimidin-4-yl)morpholine]

Compound: C[N+](C)(C)CC(=O)O [betaine HCl, Betaine hydrochloride]
- effect on gastric pH ([1]; dogs treated with famotidine+betaine HCl): reversal of hypochlorhydria
- lowering of gastric pH (gastric pH; 30 min interval after dosing 1500 mg, N=6): 4.54 (±0.46) units
- duration of gastric pH<3 (gastric pH; after 1500 mg betaine HCl): 72.5 (±32.9) min
- duration of gastric pH<4 (gastric pH; after 1500 mg betaine HCl): 76.8 (±30.4) min
- mean time to pH<3 (gastric pH; after 1500 mg betaine HCl): 6.3 (±4.3) min

Compound: Cc1nc(Nc2ncc(C(=O)Nc3c(C)cccc3Cl)s2)cc(N2CCN(CCO)CC2)n1 [dasatinib, Dasatinib]
- dasatinib levels ([1]; dogs, dasatinib+famotidine without betaine HCl, 50 mg tablet): at or below the limits of assay detection
- solubility ([6]; pH 2.6, 24° C.): ~18000 µg/mL (≈ 36900 µM)
- solubility ([6]; pH 4.0, 24° C.): ~690 µg/mL (≈ 1410 µM)
- solubility ([6]; pH 4.28, 24° C.): 205 µg/mL (≈ 420 µM)
- solubility ([6]; pH 7.0, 24° C.): < 1 µg/mL
- solubility of highest commercial dose strength (140 mg) in 250 mL of water ([6]; pH range of 4.3 to 7.0 at 24° C.): not soluble
- exposure ([7]; Maalox 30 mL administered 2 hours prior to dasatinib): unchanged
- reduction of bioavailability (AUC) ([7]; dasatinib 50 mg BID, famotidine 40 mg 10 hours prior): 61%
- reduction of AUC0-12 [7, 11]: ~60%
- reduction of Cmax [7, 11]: ~60%
- between-subject variability in Ka ([8]; in vivo): exceeded 100%
- between-subject variability in relative bioavailability (FR) ([8]; in vivo): 33%
- inter-occasion variability (IOV) within a subject in FR ([8]; in vivo): 44%
- decrease of FR with use of PPI ([8]; not statistically significant): 17%
- decrease of AUCinf [9]: 43%
- decrease of Cmax [9]: 42%
- reduction of bioavailability [9]: ~40%
- increase in AUCinf ([10]; high fat meal): 14%
- increase in AUCinf ([10]; low fat meal): 21%
